Laboratory results: patent US9487508B2, “SGC stimulators” (IRONWOOD PHARMACEUTICALS, INC., priority 2012, dated 2016)

Assays:
[1] = test system: Guinea pig tracheal smooth muscle; assay: Electrical field stimulated guinea pig tracheal smooth muscle contraction (ex vivo); details: sub-maximal EFS; pooled data of three experiments; 95% CI 0.78-0.94; read-out: IC50, inhibition of EFS-induced tracheal smooth muscle contraction
Excerpt: It is possible to assess the bronchodilating effects of sGC stimulators by using the system described below. This system allowed us to determine potency, efficacy and duration of action of several sGC stimulators, as well as to assess potential side effects such as blood pressure, or heart rate changes.
Animals: Guinea pig, Dunkin Hartley, male, Full barrier-bred and certified free of specific micro-organisms on receipt 525-609 g on the experimental day, Harlan UK Ltd. Guinea pigs were housed in a group of 4 in solid-bottomed cages with Gold Flake bedding in a controlled environment (airflow, temperature and humidity). Food (FD1, Special Diet Services) and water were provided ad libitum.
On each experimental day, a guinea pig was killed by exposure to a rising concentration of CO2 and the trachea removed. […] Tissues were washed with Kreb's buffer and stimulated using the previously determined sub-maximal voltage for 1 hour to establish a stable baseline contraction prior to assessment of compound activity.
A cumulative dose response curve (DRC) to each test substance was then performed and changes in smooth muscle contraction measured. The effect of each test substance in each experiment was expressed as a percentage inhibition of the baseline contraction, normalized to the relevant vehicle controls. […]

[2] = target: T1, Human soluble guanylate cyclase enzyme (hsGC) (Homo sapiens, UniProt Q02108+Q02153); assay: Purified human sGC enzyme synergy assay in the presence of sodium nitroprusside (SNP); type: biochemical; details: 30 μM compound, 1 μM SNP; fold change of specific activity vs DMSO control
T1 construct: purchased Enzo Inc. ALX-201-177
T1 sequence (Q02153 1-619): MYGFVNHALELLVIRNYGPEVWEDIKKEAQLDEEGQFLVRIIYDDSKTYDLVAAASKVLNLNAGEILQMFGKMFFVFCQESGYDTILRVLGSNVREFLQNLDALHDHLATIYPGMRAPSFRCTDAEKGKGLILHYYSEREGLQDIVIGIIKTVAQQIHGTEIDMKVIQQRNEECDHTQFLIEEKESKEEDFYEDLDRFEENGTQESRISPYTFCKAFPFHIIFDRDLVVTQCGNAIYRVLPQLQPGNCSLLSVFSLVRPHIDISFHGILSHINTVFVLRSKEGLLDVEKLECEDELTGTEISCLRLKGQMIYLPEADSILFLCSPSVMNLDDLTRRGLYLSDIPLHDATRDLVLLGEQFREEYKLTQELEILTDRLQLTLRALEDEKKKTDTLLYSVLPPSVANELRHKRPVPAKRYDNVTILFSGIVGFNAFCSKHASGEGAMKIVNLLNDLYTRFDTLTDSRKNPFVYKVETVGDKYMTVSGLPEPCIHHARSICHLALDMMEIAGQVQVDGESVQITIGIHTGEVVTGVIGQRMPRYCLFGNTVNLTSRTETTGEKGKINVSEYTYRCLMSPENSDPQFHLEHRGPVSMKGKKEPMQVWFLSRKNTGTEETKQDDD
T1 sequence (Q02108 1-690): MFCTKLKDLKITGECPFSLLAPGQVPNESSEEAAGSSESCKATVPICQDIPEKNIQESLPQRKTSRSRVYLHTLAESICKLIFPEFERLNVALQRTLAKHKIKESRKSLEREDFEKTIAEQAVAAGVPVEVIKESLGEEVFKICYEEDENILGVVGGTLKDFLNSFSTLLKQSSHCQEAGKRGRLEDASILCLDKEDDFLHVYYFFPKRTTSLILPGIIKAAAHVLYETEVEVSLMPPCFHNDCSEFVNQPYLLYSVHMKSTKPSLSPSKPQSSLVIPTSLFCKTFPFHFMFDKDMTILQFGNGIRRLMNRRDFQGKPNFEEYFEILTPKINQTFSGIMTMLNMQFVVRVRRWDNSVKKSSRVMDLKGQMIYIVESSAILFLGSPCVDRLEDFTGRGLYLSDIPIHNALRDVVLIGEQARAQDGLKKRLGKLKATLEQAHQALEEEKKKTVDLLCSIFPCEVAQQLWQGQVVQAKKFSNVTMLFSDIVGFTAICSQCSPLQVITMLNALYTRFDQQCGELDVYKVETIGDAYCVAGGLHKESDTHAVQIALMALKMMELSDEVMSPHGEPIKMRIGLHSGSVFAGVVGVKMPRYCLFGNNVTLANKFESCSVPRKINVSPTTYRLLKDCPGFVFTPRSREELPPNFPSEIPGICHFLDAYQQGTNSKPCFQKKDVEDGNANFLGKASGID
Experimental: (§1) Human soluble guanylate cyclase enzyme (hsGC) obtained from Enzo Inc. (P/N: ALX-201-177) was used to evaluate the activity of test compounds. The assay reactions contained 0.1 M Tris (pH 8.0), 0.5 mg/mL BSA (pH 8.0), 2 mM DTT, 2 mM MgCl2, 300 μM GTP, 1 mM 3-isobutyl-1-methylxanthine (IBMX) and 5 ng human soluble guanylate cyclase enzyme. Test compounds in DMSO were then added (2 μL, 10 or 30 μM final concentration) and incubated (water, 200 μL, 96-well plate format) at 37° C. for 30 minutes. The controls were carried out using 2 μL DMSO. After the 30 minute incubation, the reaction was stopped with the addition of 200 μL of cold methanol. The plate was then centrifuged at 3,200 rpm for 10 minutes at room temperature. Supernatants (200 μL) were collected and transferred to a new 96 well plate for analysis by HPLC LC/MS/MS.
(§2) An 8 point cGMP (Sigma-Aldrich P/N: G6129) standard curve was prepared in assay buffer ranging from 0.156-20 μM. Samples for the cGMP standard curve were then diluted with an equal volume of methanol resulting in final cGMP concentrations of 0.078-10 μM.
(§3) The cGMP standard curve was generated using GraphPad Prism Software.
Calculations: Specific Activity was determined by the amount of cGMP formed (nmoles) per mg of sGC per min. Enzyme “fold-change” was calculated by dividing Specific Activity for test compounds by Specific Activity of DMSO controls. […]

[3] = target: T1, Human soluble guanylate cyclase enzyme (hsGC); assay: Purified human sGC enzyme activity assay (without SNP); type: biochemical; details: 30 μM compound, fold change of specific activity vs DMSO control
Experimental: as §1, §2, §3
Calculations: Specific Activity was determined by the amount of cGMP formed (nmoles) per mg of sGC per min. Enzyme “fold-change” was calculated by dividing Specific Activity for test compounds by Specific Activity of DMSO controls.

[4] = target: T2, soluble guanylate cyclase (sGC) (Homo sapiens, UniProt Q02108+Q02153); assay: sGC-HEK-cGMP assay with SNP incubation (LC/MS read-out); type: cell-based; details: 10 μM SNP, 100% = BAY 41-2272 at 10 μM with 100 μM SNP
T2 construct: endogenously expressing soluble guanylate cyclase (sGC); endogenous in cells; host or cells: HEK293
T2 sequence (Q02153 1-619): T1 sequence (Q02153 1-619)
T2 sequence (Q02108 1-690): T1 sequence (Q02108 1-690)
Experimental: (Assay Run with SNP Incubation)
Human embryonic kidney cells (HEK293), endogenously expressing soluble guanylate cyclase (sGC), were used to evaluate the activity of test compounds. Compounds stimulating the sGC receptor should cause an increase in the intracellular concentration of cGMP. HEK 293 cells were seeded in Dulbecco's Modification of Eagle's Medium supplemented with fetal bovine serum (10% final) and L-glutamine (2 mM final) in a 200 μL volume at a density of 1×10^5 cells/well in a poly-D-lysine coated 96 well flat bottom plate and grown overnight at 37° C. Medium was aspirated and cells were washed with 1× Hank's Buffered Saline Salt Solution (200 μL). Cells were then incubated for 15 minutes at 37° C. with 200 μL of a 0.5 mM 3-isobutyl-1-methylxanthine (IBMX) solution. Test article and sodium nitroprusside solutions (x μM concentration for test article solution and 10 μM concentration for SNP solution; wherein x is one of the following concentrations);
were then added to the assay mixture (2 μL each) and the resulting mixture incubated at 37° C. for 10 minutes. After the 10 minute incubation, the assay mixture was aspirated and 0.1M HCl (200 μL) was added to the cells. The plate was incubated at 4° C. for 30 minutes in the 0.1M HCl to stop the reaction and lyse the cells. The plates were then centrifuged at 1,200 g for 5 minutes at room temperature. Supernatants were collected and transferred to a new flat bottom 96 well plate for analysis by HPLC-MS. Vehicle controls were carried out using DMSO (1%) solutions. A known sGC stimulator, BAY 41-2272, was used as the positive control. Samples were diluted with an equal volume of 1 M Ammonium Acetate (pH 7) to neutralize samples for better chromatography. A 2×cGMP standard solution was prepared in 0.1 M HCl and then diluted with an equal volume of 1 M Ammonium Acetate, with the following final concentrations in nM: 1024, 512, 256, 128, 64, 32, 16, 8, 4, 2, 1. cGMP concentrations in the test plates were determined from each sample using the LC/MS conditions shown in Table 2 below and the calculated cGMP standard curve. EC50 values were calculated from concentration-response curves generated with GraphPad Prism Software.
The biological activities of some of the compounds of Formula I or Formula Ib determined with the sGC-HEK assay with SNP incubation are summarized in Tables 3A and 3B.

Enzyme Activity (increase at 30 μM with SNP) [2]	Enzyme Activity (increase at 30 μM without SNP) [3]	Emax at 10 µM ([4]; 10 μM compound, read-out: HEK assay (Percent Emax at 10 μM)) [%]	Emax at 30 µM ([4]; 30 μM compound, read-out: HEK assay (Percent Emax at 30 μM)) [%]	SMILES	IC50 [1] [pM]
–	–	–	–	CC(C)[N+]1(C)[C@@H]2CC[C@H]1CC(OC(=O)C(CO)c1ccccc1)C2 (some centres unmarked) [Ipratropium bromide]	860
E (E = 20 to 30 fold increase)	C (C = 5 to <10 fold increase)	60 to 80	60 to 80	Nc1nc(-n2cc(-c3ncco3)c(Cc3ccccc3F)n2)ncc1F [Compound I-8]	–
